Structures are written as SMILES. pEC50, pIC50: −log10 of the molar value. Activity calls are given as the source filed them.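 How the source made its calls: active means compounds giving half or more protection of infected cells from virus-caused growth loss, again on retest; inactive means the rest.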

Consider 51 compounds from PubChem BioAssay AID179 (DTP/NCI, 2004).

The subject of the assay is CEM cells HIV-1 protection, formazan growth assay. Briefly: NCI AIDS Antiviral Assay. The note with it: for pIC50: measured here: growth of uninfected CEM cells. The method in brief:
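Category rules: moderately active means at least 50% protection on retest, and confirmed active means 100% protection reproducibly. The underlying data came from a formazan growth assay in HIV-1-infected CEM cells.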

Broadly, the pEC50 is the negative decadic logarithm of the EC50, by convention in mol/L. In general, pIC50 refers to the negative decadic logarithm of the IC50, by convention in mol/L. Read a high pIC50 as a small IC50. As to `CCOC(=O)c1c(N=P(c2ccccc2)(c2ccccc2)c2ccccc2)nnc(-c2ccccc2)c1-c1ccccc1`, the pEC50 was below 4.00 and the pIC50 is below 4.00.
For `COc1ccc(S(=O)(=O)N(CC(=O)O)c2ccccc2)cc1`, the result was inactive.
With `COC(=O)c1ccc(C)cc1C1CN=NC12Cc1cc(C)c(C)cc1C2=O` (stereo not given), the pEC50 was below 3.70 and the pIC50 was 4.65.
As to `Cc1cn(COCCCSc2ccccc2)c(=O)[nH]c1=O`, the pEC50 was 4.66 and the pIC50 was 3.78.
In the same order, the values of `CC1=C(O)C(=O)C2C(=O)C1C(C)C2c1ccc(C)cc1` (stereo not given) are below 3.60 and below 3.60.
In the same order, the values of `CC(C)C(O)C(=O)C(F)C(C)C` (stereo not given) are below 2.85 and below 2.85.
`O=c1/c(=C/c2ccccc2O)sc2nc3ccccc3n12`: the pEC50 is below 4.75 and the pIC50 was below 4.75.
Consider `Cc1ccc(S(=O)(=O)O/N=C2\CCC\C2=C/c2ccccc2)cc1`, for which the result was inactive.
Turning to `O=C1CSC(c2ccc([N+](=O)[O-])cc2)N1c1ccc(-n2c(-c3ccccc3)nc3ccccc3c2=O)cc1` (stereo not given), the pEC50 is below 3.70 and the pIC50 is 3.89.
In the same order, the values of `O=C1OCC2C(=O)OCC12` (stereo not given) are below 3.70 and below 3.70.
For `CCC(O)C1Cc2c(C)cc3c(c2O1)C(=O)c1ccccc1C3=O` (stereo not given), the outcome was inactive.
On the same count and under the same terms, the entry for `C/C=C(/CCCCOC1CCCCO1)[Si](C)(C)C` (stereo not given) is “inactive”.
For `OC1[C@H]([C@H]2CCCC[C@@H]2O)CCC[C@@H]1[C@@H]1CCCC[C@H]1O` (stereo not given in full), the pEC50 is below 3.77 and the pIC50 is below 3.77.
Take `O=C([CH-]C(=O)c1ccccc1)c1ccccc1.[CH-]1CCCCC1.[CH-]1CCCCC1.[CH-]1CCCCC1.[Sn+4]`: the pEC50 was below 4.22.
For the compound `CC(=O)C(=Cc1cccc(C#N)c1)C(C)=O`, the pEC50 was below 4.20 and the pIC50 was 4.46.
On the same counts, the results for `CC(=O)Nc1ccc(OC2=CCN(C)CC2)cc1` are below 3.70 and below 3.70.
In the same order, the values of `C[C@@H]1[C@@H](c2ccccc2)C12C(=O)NC(=O)NC2=O` are below 3.70 and below 3.70.
On the same counts, the results for `O=C(c1c(F)c(F)c(F)c(F)c1F)N1CCN(C(=O)c2c(F)c(F)c(F)c(F)c2F)C1=S` are below 3.70 and 5.90.
For the compound `O=c1[nH]c2ccccc2c(O)c1N=Nc1ccc(N=Nc2ccc(S(=O)(=O)O)cc2)cc1`, the pEC50 is below 3.70 and the pIC50 is below 3.70.
For `CC(=NC1C2CC3CC(C2)CC1C3)c1ccc(N=NC2C(=O)NN=C2C)cc1` (stereo not given), the pEC50 is below 5.00 and the pIC50 is below 5.00.
Turning to `COC(=O)C(Cc1c[nH]c2ccccc12)NP(=O)(O)OCC1OC(n2ccc(N)nc2=O)C(O)C1O` (stereo not given), the pEC50 is below 3.70 and the pIC50 is 5.28.
Regarding `COc1ccc(/C=C/c2cnc3ccccc3n2)cc1OC`, the pEC50 was below 3.70 and the pIC50 was 3.81.
On the same counts, the results for `Cc1cc(-c2ccc(N=Nc3c(S(=O)(=O)O)cc4cc(S(=O)(=O)O)cc(N)c4c3O)c(C)c2)ccc1N=Nc1c(S(=O)(=O)O)cc2cc(S(=O)(=O)O)cc(N)c2c1O` are 4.46 and 3.88.
On the same counts, the results for `CC(=O)Oc1cc(C)c(OC(C)=O)c2c1[C@H]1CC[C@]3(C)[C@@H](OC(C)=O)CC[C@H]3[C@@H]1CC2` are below 3.70 and 4.78.
In the same order, the values of `N=c1c2ccccc2nc2oc3ccccc3n12` are below 3.70 and below 3.70.
In the case of `CSC(=NC(=O)c1ccccc1Cl)SCCSC(=NC(=O)c1ccccc1Cl)SC`, the pEC50 was below 3.46 and the pIC50 is below 3.46.
With `N#CC(C#N)[C@@H]1CCC=C(Sc2ccccc2)[C@H]1Sc1ccccc1`, the pEC50 is below 4.70 and the pIC50 is 5.44.
In the same order, the values of `COC1=CC(=O)C(OC)=C(C2C(=O)N(C)c3ccccc32)C1=O` (stereo not given) are below 3.70 and 4.21.
In the same order, the values of `CS(=O)(=O)OCC1CN(S(C)(=O)=O)c2cc(O)ccc21` (stereo not given) are below 3.70 and 5.82.
In the same order, the values of `O=C(O)C1CC(O)CN1S(=O)(=O)Cc1ccccc1` (stereo not given) are below 3.70 and below 3.70.
For the compound `c1cc(-c2cnc(-c3ccc4c(c3)CCCO4)o2)ccn1`, the pEC50 was below 3.70 and the pIC50 is 4.30.
In the case of `CCc1c(-c2coc(CC/C(C)=C/c3ccccc3)n2)oc(OC)c(C)c1=O`, the pEC50 was below 5.02 and the pIC50 was 6.60.
On the same counts, the results for `C=C[C@@H]1c2ccccc2C=C[C@]1(CCC1(C)OCCO1)C1=NC(C)(C)CO1` are below 4.15 and below 4.15.
Consider `Nc1ccn(C2OC(CO)CC2F)c(=O)n1` (stereo not given), for which the pEC50 was 6.88 and the pIC50 is 5.15.
`Cc1ccc(C2(c3ccc(Cl)cc3)c3ccccc3C3=NCCN32)cc1` (stereo not given): the pEC50 is below 3.70 and the pIC50 is 4.96.
On to `Cc1nc2c(Br)cc(Br)cc2c(=O)n1-c1ccccc1NC1OCC(O)C(O)C1O` (stereo not given), for which the pEC50 is below 3.70.
Consider `CC(C)CC1=CC(=O)CN(CCc2c[nH]c3ccccc23)C1`, for which the pEC50 is below 3.62 and the pIC50 was 3.90.
In the same order, the values of `CN(OC(=O)CC(=O)c1ccccc1)C(=O)Cc1ccccc1` are below 3.60 and 3.72.
As to `Nc1ccn(C2CSC(CO)O2)c(=O)n1` (stereo not given), the pEC50 was 6.84 and the pIC50 is 5.00.
For `C(=Nc1ccc(SSc2ccc(N=Cc3ccccc3)cc2)cc1)c1ccccc1`, the pEC50 was below 3.70 and the pIC50 was 4.48.
For `NCC(CS)C(=O)NC(CS)C(=O)NC(CS)C(=O)NCCNc1ccc(NCCNC(=O)C(CS)NC(=O)C(CS)NC(=O)C(CN)CS)c2c1C(=O)c1c(O)ccc(O)c1C2=O` (stereo not given), the pEC50 is below 5.70 and the pIC50 is 7.90.
Turning to `NS(=O)(=O)c1ccc(NC(=O)CC(=O)Nc2ccc(S(N)(=O)=O)cc2)cc1`, the result was inactive.
In the case of `CS/C(=N\N=C(/C)c1ccccn1)N1CCN(c2ccccn2)CC1`, the pEC50 is below 3.91 and the pIC50 was 4.76.
On to `COc1cc2c(cc1OC)C(=O)c1nccc3ccc(OC)c(c13)O2`, for which the pEC50 is below 4.27 and the pIC50 was 4.36.
On to `O=[N+]([O-])c1ccc(-n2cccc2)cc1`, for which the pEC50 was below 3.70 and the pIC50 was 4.64.
In the same order, the values of `Oc1[nH]c2ccccc2c1N=NC(=S)N1CCCCC1` are below 3.70 and 5.99.
In the same order, the values of `Cc1c2ccccc2nc(CSc2nc3ccccc3s2)[n+]1[O-]` are 4.19 and below 3.70.
In the same order, the values of `C[N+](C)(CCNC(=O)c1cccc2cc3ccccc3nc12)Cc1ccc([N+](=O)[O-])cc1` are below 3.70 and 4.01.
For `NC(N)=NS(=O)(=O)c1ccc(NC(=O)c2cccc3c(Nc4ccc(S(=O)(=O)N=C(N)N)cc4)c4ccc(Cl)cc4nc23)cc1`, the pEC50 is below 4.27 and the pIC50 is below 4.27.
In the case of `CCOC(=O)CCC(NC(=O)c1ccc(Nc2nc3ccc(C(F)(F)F)cc3nc2-c2ccccc2)cc1)C(=O)OCC` (stereo not given), the pEC50 was below 3.70 and the pIC50 is 3.85.
On the same counts, the results for `C=C1C2CC[C@H]3C4(C)CCCC(C)(C(=O)O)[C@H]4CCC3(C2)[C@@H]1OC(C)=O` (stereo not given in full) are below 3.98 and 4.11.
